The values that follow come from patent publication US9073855B2, “BCL-2 selective apoptosis-inducing agents for the treatment of cancer and immune diseases” (AbbVie Inc., priority 2008, dated 2015).

Molecules are shown by their SMILES. pEC50, pKi: −log10 of the molar value. Where two headings read alike, the source gives them in different places.

In series [1] the test system is circulating platelets. The following applies: following injection in beagle canines; cited from earlier work.
Series [2] concerns FL5.12/Bcl-2 cells. Briefly: FL5.12/Bcl-2 cell viability assay under IL-3 withdrawal (CellTitre Glo). It counts as cell-based, murine. The settings on record: Mus musculus, IL-3 withdrawn 48 hrs, then 24 hrs with compound. The method in brief: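 Viability measured by CellTitre Glo after FL5.12/Bcl-2 murine cells, starved of IL-3 for 48 hrs, were treated with compounds for another 24 hrs. Killing reflects inhibition of Bcl-2 sequestration of Bim and Puma.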

The test system of series [3] is Canine platelets. Put plainly: Platelet cell viability assay (platelet-rich plasma, Cell Titer Glo). Type of series: cell-based. The settings on record: Canis lupus familiaris, 5 h, isolated canine platelets ex vivo, five hours at 37° C. The essentials: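 Isolated canine platelets were incubated ex vivo with a range of compound concentrations. After 20 min equilibration at room temperature, viability was measured by Cell Titer Glo luminescence.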
For orientation: ATP-based viability assays read luminescence as a measure of living cells.

Series [4] has as its system circulating platelets. The settings on record: following injection into C57BL/6 mice; cited from earlier work.
The target of series [5] is GST-Bcl-XL (Homo sapiens, UniProt Q07817). Put plainly: TR-FRET binding assay, GST-Bcl-XL with F-Bak peptide probe. The settings on record: TR-FRET Binding Affinity, GST-Bcl-XL, F-Bak peptide probe. The method in brief:
(§1)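 Compounds were serially diluted in DMSO from a 50 μM starting solution (2× the starting concentration; 10% DMSO). Plates were incubated for 3 h at room temperature, and TR-FRET was read with 340/35 nm excitation and emission at 520/525 nm (F-Bak) and 495/510 nm (Tb antibody). Ki values were calculated using Wang's competitive-binding equation.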
For orientation: TR-FRET usually uses a lanthanide donor and a delayed reading to cut background.

Series [6] concerns the target GST-Bcl-2 (Homo sapiens, UniProt P10415). Put plainly: TR-FRET binding assay, GST-Bcl-2 with F-Bak peptide probe. The settings on record: TR-FRET Binding Affinity, GST-Bcl-2, F-Bak peptide probe. The method in brief:
as §1

GST-Bcl-2, sequence (P10415 whole entry): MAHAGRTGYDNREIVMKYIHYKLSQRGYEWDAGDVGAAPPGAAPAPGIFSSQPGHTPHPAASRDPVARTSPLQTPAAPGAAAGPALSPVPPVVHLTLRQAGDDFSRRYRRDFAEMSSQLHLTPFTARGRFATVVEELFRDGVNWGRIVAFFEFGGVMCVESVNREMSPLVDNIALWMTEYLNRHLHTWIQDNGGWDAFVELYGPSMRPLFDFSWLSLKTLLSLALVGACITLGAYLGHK
GST-Bcl-XL, sequence (Q07817 whole entry): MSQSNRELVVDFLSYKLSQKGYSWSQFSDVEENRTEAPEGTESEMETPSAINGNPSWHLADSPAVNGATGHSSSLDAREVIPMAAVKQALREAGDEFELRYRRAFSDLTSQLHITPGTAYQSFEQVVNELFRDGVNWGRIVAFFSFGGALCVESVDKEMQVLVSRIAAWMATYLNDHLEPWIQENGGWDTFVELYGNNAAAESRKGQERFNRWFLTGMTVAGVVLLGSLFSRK

Usually pEC50 stands for −log10 of the EC50, conventionally taken in molar units. Take `CN(C)CC[C@H](CSc1ccccc1)Nc1ccc(S(=O)(=O)NC(=O)c2ccc(N3CCN(Cc4ccccc4-c4ccc(Cl)cc4)CC3)cc2)cc1[N+](=O)[O-]` [ABT-737, 4-(4-((4′-chloro-1,1′-biphenyl-2-yl)methyl)piperazin-1-yl)-N-((4-(((1R)-3-(dimethylamino)-1-((phenylthio)methyl)propyl)amino)-3-nitrophenyl)sulfonyl)benzamide, reference compound]: the “effect on circulating platelets” value in series [1] was “rapid, concentration dependant decrease in circulating platelets”; in series [4] it was “rapid, concentration dependant decrease in circulating platelets”. The values for the pEC50 in series [2] and in series [3] were 7.60 and 6.55, respectively.
By pKi is commonly meant −log10 of the Ki, conventionally taken in molar units. Low readings indicate a high Ki, high ones a low Ki. As to `CC1(C)CCC(CN2CCN(c3ccc(C(=O)NS(=O)(=O)c4ccc(NC5CCN(C6CCOCC6)CC5)c([N+](=O)[O-])c4)c(Oc4ccc5[nH]ccc5c4)c3)CC2)=C(c2ccc(Cl)cc2)C1` [Example 173, 4-(4-{[2-(4-chlorophenyl)-4,4-dimethylcyclohex-1-en-1-yl]methyl}piperazin-1-yl)-2-(1H-indol-5-yloxy)-N-({3-nitro-4-[(1-tetrahydro-2H-pyran-4-ylpiperidin-4-yl)amino]phenyl}sulfonyl)benzamide], the pKi in series [5] was 7.66; in series [6] it was 9.97. In addition, the pEC50 is 7.96 in series [2] and under 4.30 in series [3].
Regarding `CN1CCN(Nc2ccc(S(=O)(=O)NC(=O)c3ccc(N4CCN(CC5=C(c6ccc(Cl)cc6)CC(C)(C)CC5)CC4)cc3Oc3ccc4[nH]ccc4c3)cc2[N+](=O)[O-])CC1` [Example 174, 4-(4-{[2-(4-chlorophenyl)-4,4-dimethylcyclohex-1-en-1-yl]methyl}piperazin-1-yl)-2-(1H-indol-5-yloxy)-N-({4-[(4-methylpiperazin-1-yl)amino]-3-nitrophenyl}sulfonyl)benzamide], the pKi is 7.21 in series [5] and 9.98 in series [6]. Moreover, the pEC50 in series [2] was 7.96; in series [3] it was 4.71.
